One may read the GI50 as the concentration giving 50% growth inhibition. A high value points to lower sensitivity of the cells.

The values that follow come from US8158656B2, “2-indolinone derivatives as multi-target protein kinase inhibitors and histone deacetylase inhibitors” (Shenzhen Chipscreen Biosciences Ltd., priority 2008, dated 2012).

One assay concerns MDA-MB-231. In words: Tumor cell proliferation (MTS), MDA-MB-231. The note with it: Homo sapiens, MDA-MB-231, 72 hours. The class given is cell-based. As for the experimental part: (§1) Measurement of in vivo cell proliferation:
(§2) Tumor cells were trypsinized and plated into 96-well plates at 3,000 per well and incubated in complete medium with 10% FBS for 24 hours. Compounds were added over a final concentration range of 100 μmol/L to 100 nmol/L in 0.1% DMSO and incubated for 72 hours in complete medium. The effects on proliferation were determined by addition of MTS reagent (Promega) according to the instruction, incubation for 2 hours at 37° C. in CO2 incubator, and record the absorbance at 490 nm using an ELISA plate reader.

In another assay the test system is Raji. Kind of assay: Tumor cell proliferation (MTS), Raji. The class given is cell-based. To be noted: Homo sapiens, 72 hours. Here is the method: as §1, §2
For a further assay, the system named is Hut-78. Kind of assay: Tumor cell proliferation (MTS), Hut-78. The class given is cell-based. To be noted: Homo sapiens, HuT78, Hut-78, 72 hours. As for the experimental part: as §1, §2
The subject of the next assay is U937. In words: Tumor cell proliferation (MTS), U937. The class given is cell-based. To be noted: Homo sapiens, U-937, U937, 72 hours. Here is the method:
as §1, §2

The next assay concerns MCF7. Kind of assay: Tumor cell proliferation (MTS), MCF7. The class given is cell-based. The note with it: Homo sapiens, MCF7, 72 hours. Here is the method: as §1, §2
For the next assay, the system named is HL60. Kind of assay: Tumor cell proliferation (MTS), HL60. The class given is cell-based. To be noted: Homo sapiens, HL-60, HL60, 72 hours. As for the experimental part:
as §1, §2

For another assay, the system named is A549. In words: Tumor cell proliferation (MTS), A549. The class given is cell-based. The note with it: Homo sapiens, A549, 72 hours. As for the experimental part: as §1, §2
The next assay relates to HeLa. In words: Tumor cell proliferation (MTS), HeLa. The class given is cell-based. The note with it: Homo sapiens, 72 hours. Here is the method: as §1, §2
A further assay concerns HCT-8. Kind of assay: Tumor cell proliferation (MTS), HCT-8. The class given is cell-based. To be noted: Homo sapiens, HCT-8, 72 hours. Here is the method:
as §1, §2

A further assay deals with Ramos. Kind of assay: Tumor cell proliferation (MTS), Ramos. The class given is cell-based. The note with it: Homo sapiens, 72 hours. As for the experimental part: as §1, §2
The next assay concerns Bel-7402. Kind of assay: Tumor cell proliferation (MTS), Bel-7402. To be noted: Homo sapiens, Bel-7402, 72 hours. The class given is cell-based. Here is the method:
as §1, §2

Another assay has as its system Jurkat. Kind of assay: Tumor cell proliferation (MTS), Jurkat. The class given is cell-based. The note with it: Homo sapiens, 72 hours. As for the experimental part:
as §1, §2

The target of a further assay is T1, HDAC7 (Homo sapiens, UniProt Q8WUI4).
T1 construct: endogenous in cells; host or cells: HeLa
T1 sequence (Q8WUI4 1-952): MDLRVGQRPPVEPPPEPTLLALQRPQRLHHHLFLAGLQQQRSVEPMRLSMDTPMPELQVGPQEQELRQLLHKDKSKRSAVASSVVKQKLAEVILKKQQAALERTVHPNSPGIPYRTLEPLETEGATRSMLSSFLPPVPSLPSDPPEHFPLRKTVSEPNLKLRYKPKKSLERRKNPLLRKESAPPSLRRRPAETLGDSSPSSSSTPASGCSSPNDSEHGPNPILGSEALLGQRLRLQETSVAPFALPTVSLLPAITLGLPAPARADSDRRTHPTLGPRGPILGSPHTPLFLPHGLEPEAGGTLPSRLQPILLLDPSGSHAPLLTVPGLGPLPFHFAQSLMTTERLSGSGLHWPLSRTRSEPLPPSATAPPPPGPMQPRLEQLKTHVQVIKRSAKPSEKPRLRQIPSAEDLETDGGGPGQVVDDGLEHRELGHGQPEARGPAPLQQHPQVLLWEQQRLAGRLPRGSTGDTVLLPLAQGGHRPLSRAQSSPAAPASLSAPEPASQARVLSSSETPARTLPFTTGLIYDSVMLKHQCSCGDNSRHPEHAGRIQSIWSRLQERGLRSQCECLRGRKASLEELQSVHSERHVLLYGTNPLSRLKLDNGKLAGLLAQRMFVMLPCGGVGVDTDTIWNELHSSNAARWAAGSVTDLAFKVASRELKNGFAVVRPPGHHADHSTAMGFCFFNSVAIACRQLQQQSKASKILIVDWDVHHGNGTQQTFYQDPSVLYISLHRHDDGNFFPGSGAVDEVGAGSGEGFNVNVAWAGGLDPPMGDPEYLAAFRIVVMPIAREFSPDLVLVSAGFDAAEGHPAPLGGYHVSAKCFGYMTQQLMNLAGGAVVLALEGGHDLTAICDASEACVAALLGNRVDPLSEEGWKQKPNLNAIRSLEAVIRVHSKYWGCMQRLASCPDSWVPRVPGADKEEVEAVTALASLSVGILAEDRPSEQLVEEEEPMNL
In words: Nur77 reporter assay in HeLa cells. The note with it: relative to CS055 at 3 μM. The class given is cell-based. As for the experimental part: (§3) HDAC subtype selectivity inhibition assay of tested compounds was carried out by several reporter gene assays experiments. Briefly, HeLa cells were seeded in 96-well plates the day before transfection to give a confluence of 50-80%. Cells were transfected with one of reporter gene plasmid containing a promoter sequence or response element upstream of a luciferase gene construct using FuGene6 transfection reagent according to the manufacturer's instruction (Roche). The promoters or response elements including p21-promoter, gdf11-promoter, MEF-binding element (MEF2), Nur77-promoter were fused upstream to the luciferase gene reporter construct. For normalizing the transfection efficiency, a GFP expression plasmid was cotransfected. Cells were allowed to express protein for 24 hours followed by addition of individual compounds or the vehicle (DMSO). 24 hours later the cells were harvested, and the luciferase assay and GFP assay were performed using corresponding assay kits according to the manufacturer's instructions (Promega).

In the next assay the test system is Class I HDAC. In words: P21 reporter assay in HeLa cells. The class given is cell-based, human. The note with it: relative to CS055 at 3 μM. As for the experimental part:
as §3
A general note: A reporter such as luciferase makes a cellular process visible.

The subject of the next assay is HDAC4/5. Kind of assay: MEF2 reporter assay in HeLa cells. The class given is cell-based, human. The note with it: relative to CS055 at 3 μM. Here is the method: as §3
The target in a further assay is T2, HDAC3 (Homo sapiens, UniProt O15379).
T2 construct: endogenous in cells; host or cells: HeLa
T2 sequence (O15379 whole entry): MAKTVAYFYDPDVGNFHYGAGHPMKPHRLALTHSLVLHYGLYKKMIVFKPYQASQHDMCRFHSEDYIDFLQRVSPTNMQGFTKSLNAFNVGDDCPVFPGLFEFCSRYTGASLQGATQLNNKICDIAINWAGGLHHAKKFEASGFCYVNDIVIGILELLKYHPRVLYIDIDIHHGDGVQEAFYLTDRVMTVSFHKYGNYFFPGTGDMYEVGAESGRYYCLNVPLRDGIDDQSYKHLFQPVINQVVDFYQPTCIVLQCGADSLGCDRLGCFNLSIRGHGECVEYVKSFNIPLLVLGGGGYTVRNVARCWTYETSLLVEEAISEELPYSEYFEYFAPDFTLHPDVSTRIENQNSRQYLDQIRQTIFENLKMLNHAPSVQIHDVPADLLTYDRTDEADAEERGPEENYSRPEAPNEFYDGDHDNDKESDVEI
T2 sequence (Q9Y618 whole entry partner): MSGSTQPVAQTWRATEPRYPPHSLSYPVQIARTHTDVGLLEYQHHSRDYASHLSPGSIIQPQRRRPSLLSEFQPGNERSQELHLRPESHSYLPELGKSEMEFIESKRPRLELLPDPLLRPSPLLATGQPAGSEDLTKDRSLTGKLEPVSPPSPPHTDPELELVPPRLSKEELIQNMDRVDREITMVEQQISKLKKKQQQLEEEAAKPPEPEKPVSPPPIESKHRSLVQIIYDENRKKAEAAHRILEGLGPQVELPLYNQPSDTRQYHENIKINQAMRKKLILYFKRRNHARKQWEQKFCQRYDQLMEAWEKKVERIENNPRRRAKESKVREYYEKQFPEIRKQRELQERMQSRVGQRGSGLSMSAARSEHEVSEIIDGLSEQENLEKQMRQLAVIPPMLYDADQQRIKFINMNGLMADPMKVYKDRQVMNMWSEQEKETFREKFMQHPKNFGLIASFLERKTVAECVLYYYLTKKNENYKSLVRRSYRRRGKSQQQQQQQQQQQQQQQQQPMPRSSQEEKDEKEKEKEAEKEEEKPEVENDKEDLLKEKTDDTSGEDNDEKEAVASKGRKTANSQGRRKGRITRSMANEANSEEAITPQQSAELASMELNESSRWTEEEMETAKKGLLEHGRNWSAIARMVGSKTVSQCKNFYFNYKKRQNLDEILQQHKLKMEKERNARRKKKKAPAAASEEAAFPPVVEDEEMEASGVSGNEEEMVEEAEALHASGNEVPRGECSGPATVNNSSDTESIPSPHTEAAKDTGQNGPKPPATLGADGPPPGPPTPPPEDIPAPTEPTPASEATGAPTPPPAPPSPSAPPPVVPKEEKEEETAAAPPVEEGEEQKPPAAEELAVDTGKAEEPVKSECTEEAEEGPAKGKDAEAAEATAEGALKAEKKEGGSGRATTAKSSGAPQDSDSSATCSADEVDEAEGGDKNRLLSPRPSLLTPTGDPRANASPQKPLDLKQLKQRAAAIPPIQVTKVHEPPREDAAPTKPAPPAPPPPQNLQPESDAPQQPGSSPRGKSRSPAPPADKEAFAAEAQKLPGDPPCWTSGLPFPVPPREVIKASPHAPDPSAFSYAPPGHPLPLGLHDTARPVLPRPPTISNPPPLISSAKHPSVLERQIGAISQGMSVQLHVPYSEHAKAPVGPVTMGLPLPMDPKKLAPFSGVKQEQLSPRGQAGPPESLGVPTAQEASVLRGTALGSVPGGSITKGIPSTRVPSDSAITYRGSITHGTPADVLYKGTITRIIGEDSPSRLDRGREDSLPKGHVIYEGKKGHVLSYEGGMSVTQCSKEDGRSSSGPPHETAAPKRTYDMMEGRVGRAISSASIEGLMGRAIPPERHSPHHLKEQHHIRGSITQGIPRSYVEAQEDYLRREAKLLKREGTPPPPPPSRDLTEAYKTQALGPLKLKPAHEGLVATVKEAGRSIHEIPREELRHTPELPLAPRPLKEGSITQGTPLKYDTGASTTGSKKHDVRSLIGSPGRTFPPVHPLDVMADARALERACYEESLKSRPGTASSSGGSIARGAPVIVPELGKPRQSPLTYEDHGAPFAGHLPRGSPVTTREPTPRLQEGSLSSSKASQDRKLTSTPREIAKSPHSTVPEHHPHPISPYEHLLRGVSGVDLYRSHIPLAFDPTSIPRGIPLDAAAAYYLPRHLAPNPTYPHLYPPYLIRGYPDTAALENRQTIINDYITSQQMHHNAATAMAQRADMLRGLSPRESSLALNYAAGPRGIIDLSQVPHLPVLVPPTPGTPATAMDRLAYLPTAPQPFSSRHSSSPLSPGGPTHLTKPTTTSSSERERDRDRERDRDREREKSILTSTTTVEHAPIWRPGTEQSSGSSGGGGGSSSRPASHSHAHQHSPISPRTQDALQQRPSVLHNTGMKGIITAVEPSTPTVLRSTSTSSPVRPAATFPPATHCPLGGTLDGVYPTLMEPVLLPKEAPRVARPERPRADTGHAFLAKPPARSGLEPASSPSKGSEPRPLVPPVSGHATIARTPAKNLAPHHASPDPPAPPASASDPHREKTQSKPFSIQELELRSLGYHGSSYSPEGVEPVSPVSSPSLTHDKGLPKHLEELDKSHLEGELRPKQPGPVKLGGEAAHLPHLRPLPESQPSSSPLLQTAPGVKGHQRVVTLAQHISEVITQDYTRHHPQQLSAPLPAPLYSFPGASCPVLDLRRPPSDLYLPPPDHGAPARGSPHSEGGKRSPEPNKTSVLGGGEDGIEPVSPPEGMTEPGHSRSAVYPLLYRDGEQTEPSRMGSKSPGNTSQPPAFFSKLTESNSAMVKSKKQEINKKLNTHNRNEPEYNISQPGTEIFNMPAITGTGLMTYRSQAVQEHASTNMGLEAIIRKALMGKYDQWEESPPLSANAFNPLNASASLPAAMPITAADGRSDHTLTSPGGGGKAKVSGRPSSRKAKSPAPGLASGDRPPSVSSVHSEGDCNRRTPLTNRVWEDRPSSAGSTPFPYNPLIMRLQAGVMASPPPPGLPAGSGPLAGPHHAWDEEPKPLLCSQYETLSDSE
In words: GDF11 reporter assay in HeLa cells. The class given is cell-based. To be noted: relative to CS055 at 3 μM. As for the experimental part: as §3

In the case of `CNC(=O)c1cc(Oc2ccc(NC(=O)Nc3ccc(Cl)c(C(F)(F)F)c3)cc2)ccn1` [Sorafinib, reference compound], the GI50 in the assay on MDA-MB-231 amounted to 4.25 µM; with Raji, 4.15 µM; with Hut-78 it was 12.5 µM; with U937 it was 4.06 µM; in the assay with MCF7, 9.51 µM; in the assay on HL60, 1.28 µM. Also, the GI50 with A549 is 13.8 µM; in the assay on HeLa it was 30.8 µM; in the assay on HCT-8, 5.35 µM; in the assay with Ramos, 1.51 µM; in the assay on Bel-7402, 9.73 µM; with Jurkat, 16.9 µM.
With `O=C(CCCCCCC(=O)Nc1ccccc1)NO` [SAHA, suberoylanilide hydroxamic acid, reference compound], on HDAC7, the “HDAC7 (Nur77 reporter assay) % Max Resp of CS055 at 3 μM” value came to 514.9%. Also, in the assay with Class I HDAC, the “Class I HDAC (P21 reporter assay) % Max Resp of CS055 at 3 μM” value came to 304.1%. In addition, in the assay on HDAC4/5, the “HDAC4/5 (MEF2 reporter assay) % Max Resp of CS055 at 3 μM” value amounted to 427.3%. Further, on HDAC3, the “HDAC3 (GDF11 reporter assay) % Max Resp of CS055 at 3 μM” value was 317.9%.
As for `CCN(CC)CCNC(=O)c1c(C)[nH]c(/C=C2\C(=O)Nc3ccc(F)cc32)c1C` [Sutent, reference compound], the GI50 stood at 4.66 µM in the assay with MDA-MB-231; 5.47 µM in the assay on Raji; 4.06 µM with Hut-78; 8.28 µM in the assay on U937; 7.55 µM in the assay on MCF7; 1.73 µM in the assay with HL60. Besides, the GI50 in the assay on A549 is 14.7 µM; in the assay on HeLa it was 9.29 µM; in the assay on HCT-8, 12.2 µM; in the assay on Ramos, 12 µM; in the assay on Bel-7402, 13.1 µM; in the assay on Jurkat, 7.05 µM.
